The values that follow are results of earlier work, collected in publication PMC6727202 (Molecular pharmaceutics, 2019).

For this data set, the system named is kidney.

Take `NCCCC[C@H](N)C(=O)O` [lysine]: the “Reduction of kidney uptake of radiolabeled octreotide” value (lysine) is ~ 35%. For the same molecule, the “Reduction of renal uptake of radiolabeled octreotide” value (oral or intravenous administration of lysine) is “up to 40%”.
